Assay [1] deals with DSS colitis. Briefly: DSS colitis, peroral treatment (Prague study, 1st part, Example 3). It is filed as in vivo, BALB/c mice. As to the method: (§1) Fifteen conventional female Balb/c female mice (7 to 9 weeks old) were randomly separated in […] (five mice each). To evaluate the efficacy of per oral treatment, the antigens (full length Mycobacterial HSP70 protein) were administered together with 1 mg of Soybean trypsin inhibitor (SBTI, Sigma) dissolved in 50 μl of 0.15 M sodium bicarbonate, by gavage 4 times in one week interval. After one week the mice received 3% dextran sodium sulfate (DSS) in their drinking water continuously for up to 7 days. Colitis was evaluated on day 35 by a clinical activity score, by colon length and histological score.
• treated: 100 μl of sterile PBS/SBTI intragastrically (Control group) Group B1 (HSP60+DSS): • treated: HSP60 30 μg/mouse in 100 μl of sterile PBS/SBTI (1:1) intragastrically Group C1 (HSP70+DSS): • treated: HSP70 30 μg/mouse in 100 μl of sterile PBS/SBTI (1:1) intragastrically Results

For assay [2], the system named is DSS colitis. The assay is described as follows: DSS colitis, peroral treatment (Prague study, 2nd part, Example 4). It is filed as in vivo, BALB/c mice. As to the method:
as §1, with “sodium sulphate” for “sodium sulfate”, “to 8” for “to 7”, “day 36” for “day 35”
• treated: 100 μl of sterile PBS/SBTI intragastrically (Control) Group B2 (HSP60+DSS): • treated: HSP60 30 μg/mouse in 100 μl of sterile PBS/SBTI (1:1) intragastrically Group C2 (HSP70+DSS): • treated: HSP70 30 μg/mouse in 100 μl of sterile PBS/SBTI (1:1) intragastrically Results

Assay [3] has as its system DSS colitis. Briefly: DSS colitis (Utrecht study, Example 5). The format is in vivo, BALB/c mice. Particulars: for Colon Length (cm), average: 4 x 30 μg oral gavage, 3% DSS 7 days, n=10. As to the method: This study is performed with female BALB/c mice aged 7 weeks at the start of the experiment. Groups of mice (n=10) were treated 4 times (days 7, 9, 11, 14) with 30 μg HSP70 in 100 μl PBS (Mt hsp70; batch 031205; 2.1 Endotoxin Units/mg) or vehicle (100 μl PBS), administered via oral gavage. 10 minutes prior to gavage animals received 2 mg soybean trypsin inhibitor (SBTI) in 0.15M sodium bicarbonate, pH 8.0. Colitis was induced by administering drinking water supplemented with 3% DSS during 7 days.
Disease onset was followed by determination of body weight and stool consistency, resulting in clinical state as explained in the table below.
At dissection, colon length was recorded
Colons were cut longitudinally and divided into parts to determine: • histology on formalin-fixed paraffin sections • MPO activity in homogenates (indicative for neutrophilic infiltrations) • Ex-vivo cytokine release (TNFα, IL10) from distal colon sample.
Total score is calculated by the adding the score for each parameter and divided by 3.
Distal colon samples were incubated for 24 h and IL10 content in supernatant was measured using a specific ELISA. IL10 release from distal colon sample in healthy BALB/c mice is 450±328 pg/g colon.

In assay [4] the test system is TNBS-induced colitis. The assay is described as follows: TNBS colitis (Example 6). It is filed as in vivo, BALB/c mice. As to the method: Female BALB/c mice (Charles River-Germany), 10-12 weeks of age at start of the experiment, were either treated intragastrically or intranasally with full HSP70 [SEQ ID NO: 55] or HSP70 peptides (Mycobacterial HSP70 derived peptide “C1” shown in SEQ ID NO: 3 and mouse homologue peptide “mC1a” of SEQ ID NO: 4) prior to disease induction. Mice received 4×30 μg HSP70 intragastrically, in a period of 4 weeks. Stomach contents were neutralized by administering soybean trypsin inhibitor (SBTI) 10 minutes prior to oral HSP70 administration.
Intranasal treatment was performed with 4×30 μg HSP70 or 4×(67 μg peptide C1 (Mycobacterial tub. HSP70 peptide 141-155, VLRIVNEPTAAALAY) mixed with 33 μg peptide mC1a (=mouse Grp75 (hspa9) peptide 216-230, […])), in a period of 1 week.
Next, mice were sensitized by painting the shaved abdomen with 1 mg of TNBS in 100 μl 50% ethanol on two consecutive days, followed by a rectal challenge with 1 mg TNBS in 100 μl 40% ethanol, after 6 days. Mice were dissected 3 days later, and colonic inflammation was determined based on colon length, weight and morphology. Furthermore, cytokine production within colon and draining caudal lymph nodes (CLN) were determined.
• A. Oral PBS, sensitization TNBS, challenge TNBS (control group) • B. Oral (full length) HSP70, sensitization TNBS, challenge TNBS (oral group) • C. […]

Assay [5] concerns adjuvant arthritis. Particulars: in vivo; cited from earlier work.
Setting [6] is: 30 μg/mouse intragastrically with SBTI, 4 times before 3% DSS, 5 mice.
Where [7] appears, read: Multiple Range Tests, * p < 0.05.

As for “HSP70: full length Mycobacterial HSP70 protein (SEQ ID NO: 55)”, in assay [1] (setting [6]), the “Histological grade, Average” value turned out to be 1.4 and the “Weight change, Average” value is listed as −2.04. In assay [1] (30 μg/mouse intragastrically with SBTI, 4 times in one week interval before 3% DSS, day 35, 5 mice), the “Colon length, Average” value came out at 6.36. For the same substance, in assay [1] (setting [7]), the “Clinical state, Difference (contrast PBS minus treatment)” value is “*1.3332”; the “Colon length, Difference (contrast PBS minus treatment)” value was −0.2; the “Histological grade, Difference (contrast PBS minus treatment)” value is recorded as “*0.75”; the “Weight change, Difference (contrast PBS minus treatment)” value is “*−6.52”. In assay [1] (administered orally, prophylactically (prior to disease induction)), the effect on colitis entry is on record as “suppressive effect on colitis”. Besides, the “Clinical state, Average” value in assay [1] (total score of weight loss, stool consistency, bleeding divided by 3, 30 μg/mouse intragastrically, 5 mice) came out at 2.1334. Moreover, in assay [2] (setting [6]), the “Histological grade, Average” value was 1.225 and the “Weight change, Average” value is reported as −0.44. The “Histological grade, Difference (contrast PBS minus treatment)” value in assay [2] (Multiple Range Tests) is recorded as 0.35. Moreover, in assay [2] (setting [7]), the “Colon length, Difference (contrast PBS minus treatment)” value is listed as “*−1.02” and the “Weight change, Difference (contrast PBS minus treatment)” value is “*−4.62”. The “symptoms of colitis compared to PBS” value in assay [2] (p=0.0057, 0.0387 and 0.0831 for colon length, weight loss and clinical state) was “significantly mitigates the symptoms of colitis”. Also, the “Colon Length (cm), average” value in assay [3] worked out at 6.8 cm. Further, in assay [3] (listed as HSP70 protein), the “Colon Length (cm), average” value is reported as “less decreased”. For the same substance, in assay [3] (pre-treatment 4 x 30 μg oral gavage), the “disease severity (clinical score, disease progression)” value is “decreased disease severity”. In addition, in assay [4] (orally given, CD3/CD28 restimulation of draining lymph node cells), the “IL-10 responses in the caudal lymphnodes” value is reported as “elevated IL-10 responses”. Moreover, the “effect on TNBS induced colitis” value in assay [4] (prophylactically, HSP70 4x30 μg orally or intranasally, peptides 4x(67 μg C1 + 33 μg mC1a) intranasally) is recorded as “suppressive effect on TNBS induced colitis”. For the same substance, the “development of adjuvant arthritis” value in assay [5] is given as “reduce the development of adjuvant arthritis”.
